Experimental data from ChEMBL document CHEMBL1128608, “Syntheses and biological properties of novel aza-podophyllotoxin analogs prossessing pronounced antitumor activity” (Bioorg Med Chem Lett, 1995).
Converted amounts (≈) assume the structure as drawn.

Legend:
L1210 = test: Tested for in vitro cytotoxicity against L1210 murine leukemia cells in mice; format: functional, cell-based; settings: Mus musculus
Mus musculus [1] = test: Assayed for antitumor activity against P388 leukemia in mice at a dose of 25 mg/kg/injection; format: functional
Mus musculus [2] = test: Assayed for antitumor activity against P388 leukemia in mice at a dose of 50 mg/kg/injection; format: functional
Mus musculus [3] = test: Assayed for antitumor activity against P388 leukemia in mice at a dose of 5 mg/kg/injection; format: functional
Mus musculus [4] = test: Assayed for antitumor activity against P388 leukemia in mice at a dose of 100 mg/kg/injection; format: functional
Mus musculus [5] = test: Assayed for antitumor activity against P388 leukemia in mice at a dose of 10 mg/kg/injection; format: functional
Mus musculus [6] = test: Assayed for antitumor activity against P388 leukemia in mice at a dose of 2.5 mg/kg/injection; format: functional
Mus musculus [7] = test: Assayed for antitumor activity against P388 leukemia in mice at a dose of 250 mg/kg/injection; format: functional
Mus musculus [8] = test: Tested for antitumor activity against B16 melanoma in mice, at a dose of 100 mg/kg given intraperitoneally; format: functional; settings: route intraperitoneal
Mus musculus [9] = test: Tested for antitumor activity against B16 melanoma in mice, at a dose of 50 mg/kg given intraperitoneally; format: functional; settings: route intraperitoneal
Mus musculus [10] = test: Tested for antitumor activity against vincristine-resistant P388 leukemia (P388/VCR) in mice, at a dose of 10 mg/kg given intraperitoneally; format: functional; settings: route intraperitoneal
Mus musculus [11] = test: Tested for antitumor activity against vincristine-resistant P388 leukemia (P388/VCR) in mice, at a dose of 2.5 mg/kg given intraperitoneally; format: functional; settings: route intraperitoneal
Mus musculus [12] = test: Tested for antitumor activity against vincristine-resistant P388 leukemia (P388/VCR) in mice, at a dose of 25 mg/kg given intraperitoneally; format: functional; settings: route intraperitoneal
Mus musculus [13] = test: Tested for antitumor activity against vincristine-resistant P388 leukemia (P388/VCR) in mice, at a dose of 5 mg/kg given intraperitoneally; format: functional; settings: route intraperitoneal
[14] = Evaluated for the inhibition of microtubule assembly prepared from bovine brain; format: functional, Bos taurus
Mus musculus [15] = test: Assayed for antitumor activity against P388 leukemia in mice at a dose of 250 mg/kg/injection; Toxic, T/C<85%; format: toxicity, organism-based; settings: in vivo
Mus musculus [16] = test: Assayed for antitumor activity against P388 leukemia in mice at a dose of 100 mg/kg/injection; Toxic, T/C<85%; format: toxicity, organism-based; settings: in vivo
Mus musculus [17] = test: Tested for antitumor activity against B16 melanoma in mice, at a dose of 25 mg/kg given intraperitoneally; format: functional; settings: route intraperitoneal
Mus musculus [18] = test: Tested for antitumor activity against vincristine-resistant P388 leukemia (P388/VCR) in mice, at a dose of 10 mg/kg given intraperitoneally; Toxic, T/C<85%; format: toxicity, organism-based; set-up: dose 10 mg/kg, route intraperitoneal; settings: in vivo, ip
Mus musculus [19] = test: Assayed for antitumor activity against P388 leukemia in mice at a dose of 50 mg/kg/injection; Toxic, T/C<85%; format: toxicity, organism-based; settings: in vivo
Mus musculus [20] = test: Tested for antitumor activity against B16 melanoma in mice at a dose of 25 mg/kg given intraperitoneally; format: functional; settings: route intraperitoneal
Mus musculus [21] = test: Tested for antitumor activity against vincristine-resistant P388 leukemia (P388/VCR) in mice at a dose 1 mg/kg, given intraperitoneally; format: functional; settings: route intraperitoneal
Mus musculus [22] = test: Tested for antitumor activity against vincristine-resistant P388 leukemia (P388/VCR) in mice at a dose 2.5 mg/kg, given intraperitoneally; format: functional; settings: route intraperitoneal
Mus musculus [23] = test: Tested for antitumor activity against vincristine-resistant P388 leukemia (P388/VCR) in mice at a dose 5 mg/kg, given intraperitoneally; Toxic, T/C<85%; format: toxicity, organism-based; set-up: dose 5 mg/kg, route intraperitoneal; settings: in vivo, ip

Row | Structure (SMILES) | IC50 (L1210) [µg/mL] | T/C (Mus musculus [1]) [%] | T/C (Mus musculus [2]) [%] | T/C (Mus musculus [3]) [%] | T/C (Mus musculus [4]) [%] | T/C (Mus musculus [5]) [%] | T/C (Mus musculus [7]) [%] | also measured
1 | COc1cc([C@@H]2c3cc4c(cc3N[C@H]3COC(=O)N23)OCO4)cc(OC)c1OC | 0.05 (≈ 0.125 µM) | 150 | 161 | 124 | 172 | 128 | >326 | T/C (Mus musculus [6]): 111%; T/C (Mus musculus [8]): 197%; T/C (Mus musculus [9]): 153%; T/C (Mus musculus [10]): 152%; T/C (Mus musculus [11]): 113%; T/C (Mus musculus [12]): 152%; T/C (Mus musculus [13]): 129%; IC50 [14]: 0.42 µg/mL (≈ 1.05 µM)
2 | COc1cc([C@@H]2c3cc4c(cc3N(N)[C@@H]3COC(=O)N23)OCO4)cc(OC)c1OC | 0.75 (≈ 1.81 µM) | 122 | 147 | – | 147 | 111 | 161 | –
3 | COc1cc(OC)cc([C@@H]2c3cc4c(cc3N[C@@H]3COC(=O)N23)OCCO4)c1 | 0.08 (≈ 0.208 µM) | 150 | 172 | 117 | 94 | 133 | – | T/C (Mus musculus [15]): < 85%
4 | COc1cc([C@@H]2c3cc4c(cc3N[C@@H]3COC(=O)N23)OCCO4)cc(OC)c1OC | 0.052 (≈ 0.125 µM) | 153 | 165 | 119 | 233 | 131 | – | T/C (Mus musculus [15]): < 85%
5 | COc1cc([C@@H]2c3cc4c(cc3N[C@H]3COC(=O)N23)OCCO4)cc(OC)c1OC | 0.055 (≈ 0.133 µM) | 156 | 177 | 139 | – | 144 | – | T/C (Mus musculus [16]): < 85%
6 | COc1cc(OC)cc([C@@H]2c3cc4c(cc3N[C@H]3COC(=O)N23)OCCO4)c1 | 0.028 (≈ 0.0728 µM) | 147 | 199 | 114 | – | 131 | – | T/C (Mus musculus [16]): < 85%
7 | COc1cc(C2c3cc4c(cc3N=C3COC(=O)N32)OCO4)cc(OC)c1OC (configuration not stated) | 0.54 (≈ 1.36 µM) | 109 | 111 | 104 | 109 | 109 | 144 | –
8 | COc1cc([C@@H]2c3cc4c(cc3N(N)[C@H]3COC(=O)N23)OCO4)cc(OC)c1OC | 0.09 (≈ 0.217 µM) | 114 | 134 | 104 | 153 | 109 | – | T/C (Mus musculus [15]): < 85%
9 | COc1cc([C@@H]2c3cc4c(cc3N[C@@H]3COC(=O)N23)OCO4)cc(OC)c1OC | 0.42 (≈ 1.05 µM) | 161 | 239 | 117 | – | 144 | – | T/C (Mus musculus [17]): 163%; T/C (Mus musculus [9]): 190%; T/C (Mus musculus [18]): < 85%; T/C (Mus musculus [13]): 137%; IC50 [14]: 1.7 µg/mL (≈ 4.25 µM)
10 | COc1cc(OC)cc([C@@H]2c3cc4c(cc3N[C@H]3COC(=O)N23)OCO4)c1 | 0.16 (≈ 0.432 µM) | 139 | 156 | – | 206 | 110 | 206 | –
11 | COc1cc(OC)cc([C@@H]2c3cc4c(cc3N[C@@H]3COC(=O)N23)OCO4)c1 | 0.22 (≈ 0.594 µM) | 137 | 159 | – | 214 | 123 | – | –
12 | COc1cc([C@@H]2c3cc4c(cc3[C@H](O)[C@H]3COC(=O)[C@H]23)OCO4)cc(OC)c1OC [PODOFILOX] | 0.0036 (≈ 0.00869 µM) | 111 | – | – | – | 109 | – | T/C (Mus musculus [19]): < 85%; T/C (Mus musculus [6]): 111%; T/C (Mus musculus [20]): 110%; T/C (Mus musculus [21]): 122%; T/C (Mus musculus [22]): 125%; T/C (Mus musculus [23]): < 85%; IC50 [14]: 0.13 µg/mL (≈ 0.314 µM)
